Source: paper PMC8247773, “Benzohydrazide and Phenylacetamide Scaffolds: New Putative ParE Inhibitors” (Frontiers in Bioengineering and Biotechnology, 2021)
Converted amounts (≈) assume the structure as drawn. “And” between values parts separate entries of the source, which are not always exact repeats. Equal values may be shown once.

How the values were obtained:
[1] = system: Staphylococcus epidermis (NCIM 2493); set-up: method as in Yele et al., 2020, 2021; conditions: ref Yele et al., 2020, 2021; cited from earlier work
MRSA (NCIM 5021) [2] = assay: Antibacterial susceptibility test, microbroth dilution MIC; assay type: cell-based, methicillin-resistant Staphylococcus aureus; conditions: mean ± SD
Vero cells [3] = system: Vero cells
[4] = system: Klebsiella pneumonia (NCIM 2706); set-up: method as in Yele et al., 2020, 2021; conditions: ref Yele et al., 2020, 2021; cited from earlier work
[5] = system: Mycobacterium tuberculosis (NCIM 2984); set-up: method as in Yele et al., 2020, 2021; conditions: ref Yele et al., 2020, 2021; cited from earlier work
[6] = system: Pseudomonas aeruginosa (NCIM 2036); set-up: method as in Yele et al., 2020, 2021; conditions: ref Yele et al., 2020, 2021; cited from earlier work
[7] = system: Escherichia coli (NCIM 2567); set-up: method as in Yele et al., 2020, 2021; conditions: ref Yele et al., 2020, 2021; cited from earlier work
[8] = system: Escherichia coli (NCIM 2065); assay: Antibacterial susceptibility test, microbroth dilution MIC; assay type: cell-based; conditions: E. Coli (NCIM 2065); mean ± SD
Vero cells [9] = assay: In vitro cytotoxicity MTT assay; conditions: CC50 Vero cells / IC50
E. coli ParE enzyme = target: T1, E. coli ParE enzyme (Escherichia coli, UniProt P20083); assay: E. coli ParE ATPase enzyme inhibition assay (ProFoldin kit, malachite green); assay type: biochemical; conditions: ATPase activity, mean ± SD (n = 3)
T1 construct: purchased ProFoldin, Hudson, United States
T1 sequence (P20083 whole entry): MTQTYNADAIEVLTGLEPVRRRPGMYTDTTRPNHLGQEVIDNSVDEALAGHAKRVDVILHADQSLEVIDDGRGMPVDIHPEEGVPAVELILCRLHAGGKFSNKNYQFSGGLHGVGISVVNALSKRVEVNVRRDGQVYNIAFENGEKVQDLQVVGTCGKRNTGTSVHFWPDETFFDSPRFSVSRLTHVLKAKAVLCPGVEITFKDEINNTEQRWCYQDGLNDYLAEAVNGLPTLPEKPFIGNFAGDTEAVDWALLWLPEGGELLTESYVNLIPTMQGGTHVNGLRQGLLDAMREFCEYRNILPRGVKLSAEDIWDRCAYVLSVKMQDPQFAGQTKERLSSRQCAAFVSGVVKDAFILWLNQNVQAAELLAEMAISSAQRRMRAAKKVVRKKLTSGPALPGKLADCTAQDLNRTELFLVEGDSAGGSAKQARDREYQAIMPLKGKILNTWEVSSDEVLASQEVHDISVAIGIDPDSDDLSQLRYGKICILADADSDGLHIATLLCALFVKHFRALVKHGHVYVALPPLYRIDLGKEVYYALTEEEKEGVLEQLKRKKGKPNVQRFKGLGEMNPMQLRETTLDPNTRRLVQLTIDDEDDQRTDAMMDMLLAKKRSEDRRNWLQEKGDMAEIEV
T1 sequence (P0AFI2 whole entry, further chain): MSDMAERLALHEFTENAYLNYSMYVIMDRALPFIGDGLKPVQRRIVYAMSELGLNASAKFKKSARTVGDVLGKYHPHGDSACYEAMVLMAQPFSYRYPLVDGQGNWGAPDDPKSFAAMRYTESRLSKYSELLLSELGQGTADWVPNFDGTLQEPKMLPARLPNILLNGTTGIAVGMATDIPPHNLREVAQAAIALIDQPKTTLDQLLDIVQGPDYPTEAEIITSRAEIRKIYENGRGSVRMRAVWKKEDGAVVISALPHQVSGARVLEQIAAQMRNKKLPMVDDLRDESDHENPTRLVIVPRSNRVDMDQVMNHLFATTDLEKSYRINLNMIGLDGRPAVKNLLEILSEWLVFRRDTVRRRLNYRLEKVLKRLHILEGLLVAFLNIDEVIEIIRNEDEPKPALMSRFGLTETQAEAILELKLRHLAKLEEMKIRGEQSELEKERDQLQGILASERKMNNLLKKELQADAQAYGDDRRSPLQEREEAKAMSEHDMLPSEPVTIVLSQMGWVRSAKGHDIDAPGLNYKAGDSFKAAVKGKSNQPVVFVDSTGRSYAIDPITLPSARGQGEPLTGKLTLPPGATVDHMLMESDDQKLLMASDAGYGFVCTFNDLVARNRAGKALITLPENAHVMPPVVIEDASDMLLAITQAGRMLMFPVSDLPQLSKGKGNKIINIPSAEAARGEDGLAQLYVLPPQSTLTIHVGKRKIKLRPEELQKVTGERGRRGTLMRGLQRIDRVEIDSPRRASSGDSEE
Procedure: The assay was performed as per the standard protocol provided by the ProFoldin. […] ParE hydrolyzes ATP as the source of molecular energy to perform decatenation reactions. Fluoroquinolones and aminocoumarins usually block ATPase activity to hinder the biological activities of topoisomerase II. Thus, the topoisomerase ATPase assay can be used for high-throughput screening of topoisomerase inhibitors. The ATPase activity of the E. coli ParE enzyme was based on the detection of inorganic phosphate produced by the hydrolysis of ATP in the presence of DNA. The phosphate is detected using a microplate reader at an absorbance wavelength of 650 nm. The selected compounds were tested for the inhibition of ATPase activity of ParE enzyme. […] The reaction mixture was incubated for 1 h at 37°C and then quenched with 45 μL of Dye. Incubate for 5 min, and the absorbance was measured at 650 nm. The IC50 values were determined from the absorbance readings using no enzyme and no compound controls. They were calculated using the non-linear regression curve fit method.

[10] = system: Bacillus subtilis (NCIM 2545); set-up: method as in Yele et al., 2020, 2021; conditions: ref Yele et al., 2020, 2021; cited from earlier work
MRSA (ATCC43300) [11] = assay: Minimum bactericidal concentration (MBC); assay type: cell-based, methicillin-resistant Staphylococcus aureus
Procedure: (§1) MBC can be defined as the minimum concentration of a compound required to kill the bacteria over a fixed period under precise conditions. […] Colonies were counted, and colony forming unit (CFU) per milliliter was calculated.

[12] = system: Staphylococcus aureus (NCIM 5022); set-up: method as in Yele et al., 2020, 2021; conditions: ref Yele et al., 2020, 2021; cited from earlier work
[13] = system: Escherichia coli (NCIM 2065); assay: Minimum bactericidal concentration (MBC); assay type: cell-based; conditions: E. Coli (NCIM 2065); for MBC/MIC: ratio ≤2 bactericidal, ≥4 tolerance
Procedure: as §1

MRSA (ATCC43300) [14] = assay: Antibacterial susceptibility test, microbroth dilution MIC; assay type: cell-based, methicillin-resistant Staphylococcus aureus; conditions: mean ± SD
E. coli [15] = assay: Checkerboard synergy with FDA approved drugs; assay type: cell-based, Escherichia coli
E. coli [16] = assay: Post antibiotic effect (PAE); assay type: cell-based, Escherichia coli; conditions: for Time for 1 log10: untreated control 2 h
MRSA (NCIM 5021) [17] = assay: Minimum bactericidal concentration (MBC); assay type: cell-based, methicillin-resistant Staphylococcus aureus
Procedure: as §1

SMILES | Minimum inhibitory concentration (MIC) S. e [1] | Minimum inhibitory concentration (MRSA (NCIM 5021) [2]) [µg/mL] | CC50 (Vero cells [3]) [µg/mL] | Minimum inhibitory concentration (MIC) K. p [4] | Minimum inhibitory concentration (MIC) M. t [5] | Minimum inhibitory concentration (MIC) P. a [6] | Minimum inhibitory concentration (MIC) E. c [7] | Minimum inhibitory concentration [8] | SI (CC50/IC50) (Vero cells [9]) | IC50 against E. coli ParE enzyme (E. coli ParE enzyme) [µg/mL] | Minimum inhibitory concentration (MIC) B. s [10] | MBC (MRSA (ATCC43300) [11]) [µg/mL] | MBC/MIC (MRSA (ATCC43300) [11]) | Minimum inhibitory concentration (MIC) S. a [12] | MBC/MIC [13] | Minimum inhibitory concentration (MRSA (ATCC43300) [14]) [µg/mL] | MBC (MRSA (NCIM 5021) [17]) [µg/mL] | MBC/MIC (MRSA (NCIM 5021) [17]) | MBC [13] [µg/mL] | further results
O=C(COc1ccccc1NC(=O)CCl)NNC(=O)c1ccc([N+](=O)[O-])cc1 [Compound 14] | 5.61 | 4.35 ± 0.09 (≈ 10.7 µM) | 64.7605 (≈ 159 µM) | 0.98 | 2.56 | 1.98 | 0.80 | 4.14 ± 0.07 µg/mL (≈ 10.2 µM) | 179.8902 | 0.36 ± 0.03 (≈ 0.885 µM) | 5.70 | 0.94 ± 0.14 (≈ 2.31 µM) | 1 | 8.56 | 1 | 0.94 ± 0.14 (≈ 2.31 µM) |  |  |  | 
CNC(C)C1CCC(N)C(OC2C(N)CC(N)C(OC3OCC(C)(O)C(NC)C3O)C2O)O1 (centres unmarked) [Gentamicin] |  |  |  |  |  |  |  |  |  |  |  |  |  |  |  |  |  |  |  | FIC A (E. coli [15]; FIC of compound 5 in combination): 0.1453; FIC A (E. coli [15]; FIC of compound 21 in combination with the row's drug): 0.1907; FIC B (E. coli [15]; FIC of the drug in combination with compound 5): 0.1254; FIC B (E. coli [15]; FIC of the drug in combination with compound 21): 0.1510; Inference (E. coli [15]; drug combined with compound 5): Synergistic (synergistic when the ΣFICs is ≤ 0.5); Inference (E. coli [15]; drug combined with compound 21): Synergistic (synergistic when the ΣFICs is ≤ 0.5); ΣFIC A + FIC B (E. coli [15]; drug combined with compound 21): 0.3417; PAE = T - C (E. coli [16]; 1 × mic): 0 h; Time for 1 log10 (E. coli [16]; 1 × mic): 2 h; PAE = T - C (E. coli [16]; 10 × mic): 1 h; Time for 1 log10 (E. coli [16]; 10 × mic): 3 h
Cc1cccc([N+](=O)[O-])c1NC(=O)COc1ccccc1NC(=O)CCl [Compound 4] | 2.05 | 2.69 ± 0.49 (≈ 7.12 µM) | 163.9911 (≈ 434 µM) | 11.90 | 0.75 | 19.90 | 4.45 | 2.49 ± 0.31 µg/mL (≈ 6.59 µM) | 169.0629 | 0.95 (≈ 2.51 µM) | 5.97 | 8.76 ± 0.21 (≈ 23.2 µM) | 3 | 4.12 | 2 | 2.52 ± 0.37 (≈ 6.67 µM) | 8.00 ± 0.04 (≈ 21.2 µM) | 3 | 4.71 ± 0.03 (≈ 12.5 µM) | 
O=C(CSc1nc2ccccc2s1)Nc1ccc([N+](=O)[O-])cc1 [Compound 24] | 1.98 | 0.81 ± 0.10 (≈ 2.35 µM) | 168.8089 (≈ 489 µM) | 2.24 | 2.52 | 15.0 | 2.17 | 0.78 µg/mL and 0.78 ± 0.08 µg/mL | 351.6852 |  | 1.97 | 0.73 ± 0.12 (≈ 2.11 µM) | 1 | 0.78 | 1 | 0.73 ± 0.12 (≈ 2.11 µM) | 0.81 ± 0.10 (≈ 2.35 µM) | 1 | 0.78 ± 0.08 (≈ 2.26 µM) | 
O=C(CNc1nc2ccccc2s1)Nc1ccccc1 [Compound 26] | 8.14 | 2.77 ± 0.21 (≈ 9.78 µM) |  | 1.31 | 10.1 | 1.22 | 1.05 | 2.64 ± 0.31 µg/mL (≈ 9.32 µM) |  | 1.54 (≈ 5.43 µM) | 3.65 | 4.32 ± 0.10 (≈ 15.2 µM) | 4 | 0.98 | 1 | 2.78 ± 0.20 (≈ 9.81 µM) | 0.86 ± 0.13 (≈ 3.04 µM) | 1 | 0.72 ± 0.05 (≈ 2.54 µM) | 
O=C(COc1ccccc1NC(=O)CCl)Nc1cc(Cl)c(Cl)cc1Cl [Compound 11] | 1.33 | 1.79 ± 0.16 (≈ 4.24 µM) |  | 4.43 | 4.71 | 9.33 | 7.98 | 0.97 ± 0.01 µg/mL (≈ 2.3 µM) |  | 1.81 (≈ 4.29 µM) | 0.94 | 0.84 ± 0.05 (≈ 1.99 µM) | 1 | 0.68 | 1 | 0.84 ± 0.05 (≈ 1.99 µM) | 7.18 ± 0.15 (≈ 17 µM) | 4 | 0.97 ± 0.01 (≈ 2.3 µM) | 
Cc1ccc(S(=O)(=O)NC(=O)COc2ccccc2NC(=O)CCl)cc1 [Compound 18] | 3.96 | 1.81 ± 0.40 (≈ 4.56 µM) |  | 5.25 | 4.62 | 4.67 | 5.20 | 1.42 ± 0.23 µg/mL (≈ 3.58 µM) |  | 1.81 (≈ 4.56 µM) | 3.52 | 3.74 ± 0.16 (≈ 9.42 µM) | 2 | 2.48 | 1 | 1.74 ± 0.21 (≈ 4.38 µM) | 1.81 ± 0.40 (≈ 4.56 µM) | 1 | 1.42 ± 0.23 (≈ 3.58 µM) | 
COc1ccc(OCC(=O)Nc2ccc(C(=O)O)cc2)cc1 [Compound 27] | 0.94 | 1.71 ± 0.24 (≈ 5.68 µM) |  | 1.40 | 0.79 | 2.21 | 0.98 | 1.59 ± 0.38 µg/mL (≈ 5.28 µM) |  | 1.30 (≈ 4.31 µM) | 3.06 | 1.06 ± 0.14 (≈ 3.52 µM) | 1 | 0.94 | 1 | 1.06 ± 0.14 (≈ 3.52 µM) | 3.55 ± 0.07 (≈ 11.8 µM) | 2 | 1.59 ± 0.38 (≈ 5.28 µM) | 
O=C(COc1ccccc1NC(=O)CCl)NNc1ccc([N+](=O)[O-])cc1[N+](=O)[O-] [Compound 17] | 3.56 | 3.71 ± 0.15 (≈ 8.75 µM) | 150.8056 (≈ 356 µM) | 1.26 | 0.98 | 0.98 | 1.25 | 3.41 ± 0.25 µg/mL (≈ 8.05 µM) | 175.3553 | 0.86 ± 0.12 (≈ 2.03 µM) | 4.89 |  |  | 2.38 | 2 | 3.23 ± 0.21 (≈ 7.62 µM) | 7.46 ± 0.05 (≈ 17.6 µM) | 2 | 7.2 ± 0.7 (≈ 17 µM) | 
